The results in this text go back to patent publication US7498403B2, “Peptides capable of binding to titanium silver silicone” (Japan Science and Technology Agency, priority 2003, dated 2009).

A short description of assay [1]: Binding ability of phage clones to titanium particles (eluted phage titer / added phage titer). Conditions: peptide expressed on phage clone; for binding ability to titanium: titanium particles, mutants compared with SEQ ID NO: 3 clone. The procedure: 10 mg of titanium particle with a particle diameter of […] (Sumitomo Titanium Corporation, Hyogo) was put into a 1.5 ml-Eppendorf tube, and washed twice with a solution of 500 μl of 50 mM tris (hydroxymethyl) aminomethane (herein after referred to as tris (Kishida Chemical (Osaka)) HCl buffer pH 7.5; 150 mM of sodium chloride (Wako Pure Chemicals, Osaka) solution (herein after referred to as TBS) supplemented with 0.1% bovine serum albumin (herein after referred to as BSA), 0.1% Polyoxyethylenesorbitan monolaurate (herein after referred as Tween-20 (Sigma, St. Louis)). Washing of titanium particles was performed by centrifuging with a desktop centrifuge H1300 (Kokusan) at 13,000 rpm, 5 sec, to precipitate titanium particles and to remove supernatant. After washing, in order to block the non-specific adsorption of the phage, the mixture was stirred by rotating with 1 ml of the same solution for 30 min at room temperature by using a rotary shaker rotator RT-50 (Taitec).
By centrifuging with a desktop centrifuge H1300 (Kokusan) at 13,000 rpm, 5 sec, titanium particles were precipitated, the supernatant was removed, and then 1 ml TBS containing peptide-expressing phage library, D12 library expressing linear random peptide of 12 residues (New England Biolabs, Beverly), 17×10^11 plaque-forming unit (herein after referred to as pfu), or C7C library expressing cyclic randam peptide of 7 residues (New Engand Biolabs) 2.0×10^11 pfu, 0.1% BSA and 0.1% Tween-20 solution were added, and stirred by rotating for 2 hours, at room temperature with a rotary shaker, rotator RT-50.
By centrifuging with a desktop centrifuge H1300 (Kokusan) at 13,000 rpm, 5 sec, the supernatant was removed, and the resultant was washed 10 times with 1 ml of TBS, 0.1% Tween-20 solution. Washing was performed by centrifuging at 8000×g, 5 sec, by precipitating titanium particles. After removing washing solution, 1 ml of 0.2 M glycine (Wako Pure Chemicals), HCl buffer pH 2.2 were added and stirred by rotating for 10 min at room temperature with rotator RT-50 (Taitec) to elute phage bound to titanium. Titanium was precipitated by centrifugation, and the supernatant was moved to a separate 1.5 ml-Eppendorf tube. Then, 150 μl of 1M tris/HCl buffer pH 9.1 was added to neutralize, and phage titer in the solution (plaque forming ability per unit solution) was measured according to a common procedure (Molecular Cloning Third Edition, Cold Spring Harbor Laboratory Press).
(§1) By using the phage clone obtained in Example 1, the binding ability to titanium was evaluated by the following experiment. The same method as for panning operation shown in Example 1 was performed. The difference between Example 1 is that the stirring time of titanium and phage clone was 1 hour; the Tween 20 concentration and BSA concentration in each solution was 0.5%, and 1%, respectively, and that the titer of the phage added was 10^9 pfu for clone from D12, and 10^11 pfu for clone from C7C.
For clone strongly bound particularly with titanium (SEQ ID NO: 3) in Example 2, point mutants substituted by alanine having only one methyl group in the side chain was prepared and the change of binding ability to titanium was examined for each mutant phage. As point mutant comprises alanine in the 6th position in the expressed sequence, mutants were prepared for all the residues except the 6th residue. The preparation of point mutants was performed by Kunkel method (Molecular Cloning Third Edition, Cold Spring Harbor Laboratory Press). Synthetic DNAs used for preparing point mutants are shown in FIG. 8 (SEQ ID NOs: 40 to 50). The introduction of point mutation was confirmed by determining the DNA sequence of phage DNA. DNA sequencing was performed in the same manner as Example 1. The binding ability to titanium of the obtained point mutants was measured by the method shown in Example 2, by adjusting the phage amount added to 10^10 pfu.
The deletion mutants were prepared by the method shown schematically in FIG. 10. […]

Assay [2] in a line: Binding ability of phage clone to copper particles. Conditions: peptide expressed on phage clone. The procedure: as §1
(§2) To investigate the binding specificity of phage clone expressing a peptide comprising an amino acid sequence shown in SEQ ID NO: 3 to metal material, to 10 mg each of gold (purity>99.9%, particle diameter<150 μm)/silver (purity>99.9%, particle diameter<75 μm)/copper (purity>99%, particle diameter 75-150 μm)/platinum (purity>99.9%, particle diameter<75 μm)/iron (purity>99.9%, particle diameter<150 μm)/tin (purity>99.9%, particle diameter<150 μm)/zinc (purity>99.9%, particle diameter<150 μm)/chrome (purity>98%, particle diameter>10 μm)/cobalt (purity>99%, particle diameter<75 μm)/silicon (purity>99%, particle diameter<150 μm) (Kojundo Chemical Lab., Saitama), the binding ability to each metal was examined by the same method of Example 2, by using 10^10 pfu/ml of phage clone expressing a peptide comprising an amino acid sequence shown in SEQ ID NO: 3.

Assay [3] in a line: Binding ability of phage clone to iron particles. The following applies: peptide expressed on phage clone. As for the experimental part: as §1, §2
Assay [4] in a line: Adsorption of synthetic peptide to titanium particles, Langmuir adsorption isotherm fitting. The following applies: Ti. It counts as binding. The procedure: (§3) In order to confirm whether the synthetic peptide comprising an amino acid sequence shown in SEQ ID NO: 3 binds to titanium surface, the binding ability of the synthetic peptides comprising an amino acid sequence shown in SEQ ID NO: 3 to titanium particles was examined. 10 mg of titanium particles used in Example 1 was put into an Eppendorf tube, washed twice with 50 mM HEPES-NaOH, 150 mM NaCl. Then, 100 μl of 5 to 40 μM of the synthetic peptides of SEQ ID NO: 3, and the mixture was stirred by rotating by using a rotary shaker rotator RT-50 (Taitec) at room temperature for 2 hours. By centrifuging with a desk-top centrifuge H-1300 (Kokusan, Tokyo), at 13,000 rpm, for 5 sec., the supernatant was removed, mixed with fluoro aldehyde (Pias Rockford, Ill.), and by using a spectrofluorometer (Nippon Bunko, Tokyo), at excitation wave length 342 nm, fluorescent wave length 437 nm, the binding level to titanium was calculated from the peptide concentration of the supernatant. The relative surface area of titanium was calculated from the density and mean particle diameter. Further, the binding ability of the synthetic peptide comprising an amino acid sequence shown in SEQ ID NO: 2 to silicone/tin used in Example 13 was examined by the same method. […]

Assay [5] is described as follows: QCM-D300 quartz crystal microbalance analysis of phage binding to titanium sensor. The following applies: phage clone; frequency and dissipation (viscoelasticity), sensor blocked with BSA. As for the experimental part:
As for the clone strongly bound particularly with titanium (expressing peptide of SEQ ID NO: 3), the binding form of titanium surface and phage was examined, by measuring with QCM-D300 (Q-sense AB, Goeteborg), which is a device for quantification of interaction with a quartz crystal microbalance.
For a quartz crystal microbalance, titanium sensor being a genuine part of QCM-D300 was used. The temperature was fixed at 24.99° C., and the actual measurement value was from around 24.68° C. to 24.70° C. It was measured in a condition of blocking the sensor with BSA, and in a condition without blocking. When blocking with BSA is not performed, after measuring the standard value with TBS, the phage solution adjusted so that the phage titer becomes 10^10 pfu/ml was measured continuously. When blocking with BSA is performed, after measuring the standard value with TBS, blocking was conducted by incubating for about 10 min with TBS, 0.1% BSA, and after washing again migrated BSA with TBS, the phage solution adjusted so that the phage titer becomes 10^11 pfu/ml was measured continuously.
From the results shown in FIG. 6, it is clear that the phage clone is bound to the sensor from the change of frequency, under the absence of BSA. […]

Assay [6] can be described thus: Binding ability of phage clones to silver particles. The following applies: peptide expressed on phage clone. As for the experimental part:
as §1, §2
(§4) In order to confirm whether the binding form to silver or silicone, and the sequence specificity of the phage clone expressing a peptide comprising an amino acid sequence shown in SEQ ID NO: 3 is similar as in the case of binding to titanium, the binding ability of the alanine substituted-mutant phage of SEQ ID NOs: 4, 5, 7, 8 used in Example 4 to silver/silicon was examined by the method shown in Example 2.

Assay [7] in a line: Binding ability of phage clones to silicon particles. The following applies: peptide expressed on phage clone. The procedure: as §1, §2, §4
A short description of assay [8]: Adsorption of synthetic peptide to silicon particles, Langmuir adsorption isotherm fitting. It counts as binding. Conditions: Si. As for the experimental part: as §3

As to “RKLPDAPGMHTW [SEQ ID NO: 3, tested on phage clone and as synthetic peptide]”, the “binding ability to titanium treated with hydrogen peroxide” value in assay [1] (titanium particles treated with 3% hydrogen peroxide for 1 hour) is listed as “increased”. Moreover, the “binding ability to titanium” value in assay [1] is on record as “much higher”. For the same substance, the binding to copper entry in assay [2] is on record as “below the detection limit”. Further, in assay [3], the binding to iron entry is recorded as “below the detection limit”. For the same substance, the Kd in assay [4] (synthetic peptide 5 to 40 μM, 50 mM HEPES-NaOH, 150 mM NaCl, room temperature, 2 hours, read-out: Kd (dissociation constant)) amounted to 11.1 ± 2.8 µM. In assay [4] (synthetic peptide, Langmuir fitting), the “qm (maximum adsorption level)” value is given as 2.5 ± 0.3 × 10^−6 mole/m^2. Also, the “binding form of phage to titanium surface” value in assay [5] is recorded as “bound perpendicularly to titanium surface”.

On to “SEQ ID NO: 7: e3-2-3 mutant, 4th amino acid residue substituted by Ala (RKLADAPGMHTW)”, for which, in assay [1], the “binding ability to titanium” value is given as “the most significantly impaired”. For the same substance, the “binding ability to silver” value in assay [6] is “same trend as for titanium”. Besides, the “binding ability to silicon” value in assay [7] is recorded as “same trend as for titanium”.

With RKLPDA [SEQ ID NO: 1], the “binding ability to titanium” value in assay [1] was “not affected by the deletion”.

With RALPDA [SEQ ID NO: 2], in assay [1], the “binding ability to titanium” value is recorded as “binds”. In addition, the “binding ability to silver” value in assay [6] is recorded as “binds”. Further, the “binding ability to silicon” value in assay [7] is listed as “binds”. Besides, the “qm (maximum adsorption level)” value in assay [8] is 2.1 ± 0.3 × 10^−7 mole/m^2. Also, in assay [8] (read-out: Kd (dissociation constant)), the dissociation constant Kd stood at 13.2 ± 4 µM.

As to “SEQ ID NO: 8: e3-2-3 mutant, 5th amino acid residue substituted by Ala (RKLPAAPGMHTW)”, the “binding ability to titanium” value in assay [1] is “significantly impaired”. In assay [6], the “binding ability to silver” value is recorded as “same trend as for titanium”. In assay [7], the “binding ability to silicon” value is “same trend as for titanium”.

As for “SEQ ID NO: 5: e3-2-3 mutant, 2nd amino acid residue substituted by Ala (RALPDAPGMHTW)”, the “binding ability to titanium” value in assay [1] is “increased”. Also, the “binding ability to silver” value in assay [6] is “same trend as for titanium”. For the same substance, the “binding ability to silicon” value in assay [7] is given as “same trend as for titanium”.

For “SEQ ID NO: 4: e3-2-3 mutant, 1st amino acid residue substituted by Ala (AKLPDAPGMHTW)”, the “binding ability to titanium” value in assay [1] is listed as “significantly impaired”. In assay [6], the “binding ability to silver” value is recorded as “same trend as for titanium”. The “binding ability to silicon” value in assay [7] was “same trend as for titanium”.

In the case of “SEQ ID NO: 15: Ala is added/inserted to N terminal of e-3-2-3 (ARKLPDAPGMHTW)”, the “binding ability to titanium” value in assay [1] was “increase of the binding ability”.
